Measured values: the NIST ThermoML archive (doi:10.1016/j.jct.2006.05.004)

What was measured:
[1] = xn = mol fraction of the nth substance listed; conditions: 298.15 K, 101 kPa, Liquid
[2] = excess molar enthalpy (molar enthalpy of mixing); xn = mol fraction of the nth substance listed; conditions: 298.15 K, 101 kPa, Liquid

BrCCCCBr [1,4-dibromobutane] + CCC(=O)OC
Conditions	excess molar enthalpy [kcal/mol]	mass density [kg/m3]
[1], x2 = 0.0733	–	1763.63
[1], x2 = 0.1392	–	1712.4
[1], x2 = 0.2065	–	1658.81
[1], x2 = 0.2725	–	1604.96
[1], x2 = 0.3378	–	1550.31
[1], x2 = 0.3974	–	1499.32
[1], x2 = 0.4596	–	1444.8
[1], x2 = 0.5225	–	1388.41
[1], x2 = 0.638	–	1281.23
[1], x2 = 0.6944	–	1227.08
[1], x2 = 0.7466	–	1175.87
[1], x2 = 0.7998	–	1122.53
[1], x2 = 0.8489	–	1072.14
[1], x2 = 0.8998	–	1018.87
[1], x2 = 0.9505	–	964.61
[2], x2 = 0.074	0.0219	–
[2], x2 = 0.1513	0.0366	–
[2], x2 = 0.2294	0.0459	–
[2], x2 = 0.305	0.0495	–
[2], x2 = 0.3744	0.0494	–
[2], x2 = 0.4375	0.0468	–
[2], x2 = 0.4948	0.0428	–
[2], x2 = 0.546	0.0378	–
[2], x2 = 0.5911	0.0327	–
[2], x2 = 0.6302	0.0274	–
[2], x2 = 0.6539	0.0245	–
[2], x2 = 0.665	0.0245	–
[2], x2 = 0.6965	0.0181	–
[2], x2 = 0.712	0.016	–
[2], x2 = 0.7721	0.00839	–
[2], x2 = 0.8331	0.00425	–
[2], x2 = 0.8921	0.00227	–
[2], x2 = 0.9477	0.000956	–

BrCCCCCBr [1,5-dibromopentane] + CCCCC(=O)OC
Conditions	excess molar enthalpy [kcal/mol]	mass density [kg/m3]
[1], x2 = 0.0687	–	1640.97
[1], x2 = 0.1285	–	1593.96
[1], x2 = 0.1833	–	1550.6
[1], x2 = 0.2445	–	1501.98
[1], x2 = 0.3066	–	1452.48
[1], x2 = 0.4193	–	1362.14
[1], x2 = 0.4804	–	1312.78
[1], x2 = 0.5408	–	1263.86
[1], x2 = 0.601	–	1214.87
[1], x2 = 0.6553	–	1170.47
[1], x2 = 0.7137	–	1122.58
[1], x2 = 0.7698	–	1076.41
[1], x2 = 0.822	–	1033.27
[1], x2 = 0.8841	–	981.75
[2], x2 = 0.0709	0.011	–
[2], x2 = 0.1603	0.0179	–
[2], x2 = 0.2511	0.0203	–
[2], x2 = 0.3436	0.0192	–
[2], x2 = 0.4221	0.0158	–
[2], x2 = 0.4895	0.0112	–
[2], x2 = 0.5345	0.00609	–
[2], x2 = 0.5389	0.00564	–
[2], x2 = 0.5838	0.00184	–
[2], x2 = 0.606	-0.00203	–
[2], x2 = 0.6821	-0.00554	–
[2], x2 = 0.7721	-0.00777	–
[2], x2 = 0.8617	-0.00657	–
[2], x2 = 0.943	-0.000574	–

BrCCCBr [1,3-dibromopropane] + CCCC(=O)OC
Conditions	excess molar enthalpy [kcal/mol]	mass density [kg/m3]
[1], x2 = 0.0527	–	1904.53
[1], x2 = 0.1033	–	1844.63
[1], x2 = 0.1625	–	1775.48
[1], x2 = 0.2135	–	1716.63
[1], x2 = 0.268	–	1654.61
[1], x2 = 0.3273	–	1588.07
[1], x2 = 0.3844	–	1524.77
[1], x2 = 0.4397	–	1464.34
[1], x2 = 0.4966	–	1402.92
[1], x2 = 0.5597	–	1335.77
[1], x2 = 0.6194	–	1273.09
[1], x2 = 0.6773	–	1213.28
[1], x2 = 0.7401	–	1149.07
[1], x2 = 0.8089	–	1079.72
[1], x2 = 0.8623	–	1026.6
[1], x2 = 0.9397	–	950.76
[2], x2 = 0.0571	0.00789	–
[2], x2 = 0.1319	0.0136	–
[2], x2 = 0.2164	0.0167	–
[2], x2 = 0.3018	0.0163	–
[2], x2 = 0.3823	0.0126	–
[2], x2 = 0.4559	0.00676	–
[2], x2 = 0.5207	-0.000191	–
[2], x2 = 0.5371	-0.00325	–
[2], x2 = 0.5718	-0.00545	–
[2], x2 = 0.6497	-0.00978	–
[2], x2 = 0.7433	-0.0109	–
[2], x2 = 0.8389	-0.00956	–
[2], x2 = 0.9316	-0.00511	–

BrCCCCCBr [1,5-dibromopentane] + COC(C)=O
Conditions	excess molar enthalpy [kcal/mol]	mass density [kg/m3]
[1], x2 = 0.0956	–	1647.08
[1], x2 = 0.1844	–	1601.35
[1], x2 = 0.2647	–	1557.01
[1], x2 = 0.3394	–	1512.51
[1], x2 = 0.4752	–	1423.41
[1], x2 = 0.5958	–	1333.86
[1], x2 = 0.6582	–	1282.77
[1], x2 = 0.7059	–	1241.33
[1], x2 = 0.7548	–	1196.56
[1], x2 = 0.8019	–	1150.87
[1], x2 = 0.8486	–	1102.92
[1], x2 = 0.8874	–	1060.93
[1], x2 = 0.9243	–	1019.18
[1], x2 = 0.9638	–	972.17
[2], x2 = 0.1045	0.0536	–
[2], x2 = 0.2048	0.0886	–
[2], x2 = 0.2959	0.115	–
[2], x2 = 0.3795	0.13	–
[2], x2 = 0.454	0.137	–
[2], x2 = 0.5171	0.137	–
[2], x2 = 0.5731	0.133	–
[2], x2 = 0.622	0.127	–
[2], x2 = 0.685	0.116	–
[2], x2 = 0.7322	0.103	–
[2], x2 = 0.7812	0.0893	–
[2], x2 = 0.8296	0.0734	–
[2], x2 = 0.874	0.0585	–
[2], x2 = 0.9245	0.0386	–
[2], x2 = 0.9655	0.0173	–

BrCCCBr [1,3-dibromopropane] + COC(C)=O
Conditions	excess molar enthalpy [kcal/mol]	mass density [kg/m3]
[1], x2 = 0.0821	–	1900.75
[1], x2 = 0.1456	–	1845.13
[1], x2 = 0.2131	–	1784.87
[1], x2 = 0.2862	–	1717.43
[1], x2 = 0.3503	–	1656.68
[1], x2 = 0.412	–	1596.53
[1], x2 = 0.4744	–	1533.88
[1], x2 = 0.535	–	1471.53
[1], x2 = 0.5898	–	1413.65
[1], x2 = 0.6476	–	1350.9
[1], x2 = 0.7027	–	1289.26
[1], x2 = 0.7565	–	1227.76
[1], x2 = 0.8086	–	1166.64
[1], x2 = 0.8558	–	1109.89
[1], x2 = 0.905	–	1048.62
[1], x2 = 0.9514	–	989.83
[2], x2 = 0.08	0.034	–
[2], x2 = 0.1613	0.0558	–
[2], x2 = 0.2406	0.0748	–
[2], x2 = 0.3177	0.0867	–
[2], x2 = 0.3862	0.091	–
[2], x2 = 0.4435	0.0934	–
[2], x2 = 0.4958	0.0935	–
[2], x2 = 0.5468	0.0894	–
[2], x2 = 0.5909	0.0838	–
[2], x2 = 0.6336	0.078	–
[2], x2 = 0.6509	0.0747	–
[2], x2 = 0.6702	0.0722	–
[2], x2 = 0.7094	0.0627	–
[2], x2 = 0.7687	0.0505	–
[2], x2 = 0.8316	0.0365	–
[2], x2 = 0.8928	0.0229	–
[2], x2 = 0.9501	0.0112	–

BrCCCCCBr [1,5-dibromopentane] + CCC(=O)OC
Conditions	excess molar enthalpy [kcal/mol]	mass density [kg/m3]
[1], x2 = 0.0841	–	1644.47
[1], x2 = 0.1537	–	1602.6
[1], x2 = 0.1671	–	1594.29
[1], x2 = 0.2971	–	1510.79
[1], x2 = 0.3661	–	1463.62
[1], x2 = 0.4312	–	1417.3
[1], x2 = 0.4903	–	1373.47
[1], x2 = 0.609	–	1280.2
[1], x2 = 0.6628	–	1235.27
[1], x2 = 0.716	–	1189.3
[1], x2 = 0.8143	–	1099.41
[1], x2 = 0.864	–	1051.37
[1], x2 = 0.9561	–	957.37
[2], x2 = 0.0808	0.0283	–
[2], x2 = 0.1674	0.0457	–
[2], x2 = 0.2542	0.0591	–
[2], x2 = 0.3326	0.0658	–
[2], x2 = 0.4065	0.068	–
[2], x2 = 0.4708	0.0667	–
[2], x2 = 0.4974	0.0651	–
[2], x2 = 0.5293	0.0628	–
[2], x2 = 0.5381	0.0621	–
[2], x2 = 0.5791	0.0574	–
[2], x2 = 0.584	0.0562	–
[2], x2 = 0.6329	0.0509	–
[2], x2 = 0.6845	0.0433	–
[2], x2 = 0.7383	0.0366	–
[2], x2 = 0.7938	0.0284	–
[2], x2 = 0.8494	0.0202	–
[2], x2 = 0.9053	0.0112	–
[2], x2 = 0.955	0.00521	–
